The values that follow come from patent US20080280815A1, “Lowering Serum Lipids” (Novo Nordisk A/S, priority 2000, published 2008).

In data set [1] the test system is Wistar rats subjected to neonatal monosodium glutamate treatment (MSG). As to the kind of experiment: Acute and subchronic anorectic effects, model of hypothalamic obesity (MSG rats). The format is in vivo, rat. As to the method:
Solutions were always made fresh approximately 1 hour prior to use and stored at 4° C. in sterile tubes.

Data set [2] has as its system male Zucker Diabetic Fatty fa/fa (ZDF) rat. As to the kind of experiment: Long-term treatment of male Zucker Diabetic Fatty fa/fa (ZDF) rats, model of Type 2 diabetes. The format is in vivo. The settings on record: for Free fatty acids / Total cholesterol: mean ± SEM. The source says: The male Zucker Diabetic Fatty fa/fa (ZDF) rat is a model of Type 2 diabetes. The rats are insulin resistant but normoglycemic from birth and they develop diabetes from about week 7 to week 10 of age. During the transitional period, the animals go through a state of impaired glucose tolerance. Although the animals are hyperinsulinemic before diabetes onset and during the early stages of diabetes, they later lose glucose-stimulated insulin secretion and finally become almost completely insulinopenic.
Animals were between 7 and 8 weeks old when dosing was initiated, and fed glucose levels were not different between the groups before dosing began. […] After 36 days of dosing, an oral glucose tolerance test was performed in the animals after an 11-hour fast. One g/kg of glucose was administered by oral gavage and subsequent measurements of blood glucose and plasma insulin were made.
In addition to the effects on blood glucose and insulin, we also studied the effects of long-term treatment on lipid parameters. Thus, at the termination of the study, non-fasted plasma measurements of total cholesterol, free fatty acids were performed.

For the next data set, the system named is normal Wistar rats. In words: Acute and subchronic anorectic effects, normal Wistar rats. It counts as in vivo, rat. Conditions: lowered from 1.58±0.1, 100 μg/kg s.c. twice daily.
Setting [3] is: 100 μg/kg s.c. twice daily, normal and MSG rats not distinguished.
[4] abbreviates: initial effect, normalised within few days of treatment.
The mark [5] stands for this setting: 150 μg/kg s.c. bi-daily, non-fasted plasma at termination.
Where [6] appears, read: group B, 30 μg/kg s.c. bi-daily, non-fasted plasma at termination.
Setting [7] is: group C, 150 μg/kg s.c. bi-daily, non-fasted plasma at termination.

Consider “Arg^34, Lys^26(N^ε-(γ-Glu(N^α-hexadecanoyl)))-GLP-1(7-37) [GLP1]”, for which, in data set [1] (setting [3]), the body weight entry is “reduced” and the food intake result is recorded as “inhibition”. Besides, in data set [1] (setting [4]), the diuresis result is recorded as “increases” and the water intake result is listed as “Initial decreases”. The “plasma parameters of renal function” value in data set [1] (throughout the experiment) is recorded as “remained normal”. For the same substance, in data set [2] (setting [5]), the “free fatty acids, group C compared to group A (vehicle)” value is “significant reduction” and the “total cholesterol, group C compared to group A (vehicle)” value is “significant reduction”. The “blood glucose state during a normal 24-hour feeding schedule” value in data set [2] (group B, 30 μg/kg s.c. bi-daily, after 10 days of dosing) is “hyperglycemic”. Further, in data set [2] (setting [6]), the Free fatty acids is 0.29 ± 0.04 mM and the Total cholesterol is 2.9 ± 0.1 mM. For the same substance, in data set [2] (group C, 150 μg/kg s.c. bi-daily, after 10 days of dosing), the “blood glucose levels during a normal 24-hour feeding schedule vs vehicle- and low-dose-treated animals” value is “significantly lower”. Besides, the “blood glucose levels during a normal 24-hour feeding schedule” value in data set [2] (group C, 150 μg/kg s.c. bi-daily, after 10 days of dosing, compared to initial measurements) is recorded as “unchanged”. Besides, in data set [2] (group C, 150 μg/kg s.c. bi-daily, after 36 days of dosing, 11-hour fast, 1 g/kg glucose by oral gavage), the “glycemic level in oral glucose tolerance test vs groups A and B” value is “significantly lower”. In data set [2] (setting [7]), this substance gave a Free fatty acids of 0.20 ± 0.02 mM and a Total cholesterol of 2.2 ± 0.1 mM. For the same substance, in the data set with normal Wistar rats, the “plasma levels of triglycerides” value is 1.21 ± 0.3 mM.
